# System: HT1080 cells (ATCC, cat #CCL-121)
# Assay: HT1080 CellTiter-Glo 2.0 IC50 assay of working examples
# Type: cell-based
# Settings: HT-1080, 24 hrs, cells plated with and without 1.5 μM ferrostatin-1, table does not say which, Table 7
# Experimental: Biological evaluation of working examples A1-A47 and B1-B28 was performed in HT1080 cells (ATCC, cat #CCL-121) according to the procedure provided below.
# • 1.1 Cells were harvested from flask into cell culture medium and then the cell number count was determined. • 1.2 The cells were suspended with 1.5 μM ferrostatin-1 and without ferrostatin-1. • 1.3 Cells were plated at a density of 1,500 cells per well in a 384-well black sided clear bottom plate, in 25 μL, using electronic multichannel pipette. • 1.4 Plates were covered with lid and spun for 1 min at 1000 rpm, then allowed to incubate overnight at 37° C. under 5% CO2.
# • 2.1 Compounds were dissolved at 10 mM stock solution and 10 μl of diluted solution was transferred to a 384 LDV-plate (LABCYTE, LP-0200). A 3 fold, 11-point dilution was performed. • 2.2 Cells were treated with compounds by plate reformat Echo software and spun for 1 min at 1000 rpm. Then incubated at 37° C. for 24 hrs in a CO2 incubator.
# • 3.1 The plates were removed from the incubator and allowed to equilibrate to room temperature, at least 30 minutes. • 3.2 CellTiter-Glo® 2.0 Reagent (Promega, G9242) was added (25 μL) to the assay plates and spun for 1 min at 1000 rpm. Then allowed to stand for about 20 minutes before reading luminescence signal on Envision. • 3.3 The IC50 calculations were determined with a nonlinear fit, variable slope (four parameters) log(inhibitor) vs. response model using GraphPad PRISM.
row,SMILES,IC50
1,"Cc1cc(C)cc(N(Cc2ccc(F)cc2)C(=O)CCl)c1 [Compound A1, 2-chloro-N-(3,5-dimethylphenyl)-N-[(4-fluorophenyl)methyl]acetamide]",100 to 1000 nM
2,"COc1ccc(CN(C(=O)CCl)c2cc(C)cc(C)c2)cc1 [Compound A2, 2-chloro-N-(3,5-dimethylphenyl)-N-[(4-methoxyphenyl)methyl]acetamide]",10 to 100 nM
3,"COc1cc(OC)cc(N(Cc2ccc(F)cc2)C(=O)CCl)c1 [Compound A3, 2-chloro-N-(3,5-dimethoxyphenyl)-N-[(4-fluorophenyl)methyl]acetamide]",10 to 100 nM
4,"Cc1cc(C)cc(N(Cc2ccc(Cl)cc2)C(=O)CCl)c1 [Compound A4, 2-chloro-N-[(4-chlorophenyl)methyl]-N-(3,5-dimethylphenyl)acetamide]",100 to 1000 nM
5,"COc1cccc(CN(C(=O)CCl)c2cc(C)cc(C)c2)c1 [Compound A5, 2-chloro-N-(3,5-dimethylphenyl)-N-[(3-methoxyphenyl)methyl]acetamide]",10 to 100 nM
6,"Cc1cc(C)cc(N(Cc2ccccc2Cl)C(=O)CCl)c1 [Compound A6, 2-chloro-N-[(2-chlorophenyl)methyl]-N-(3,5-dimethylphenyl)acetamide]",100 to 1000 nM
7,"COc1ccccc1CN(C(=O)CCl)c1cc(C)cc(C)c1 [Compound A7, 2-chloro-N-(3,5-dimethylphenyl)-N-[(2-methoxyphenyl)methyl]acetamide]",10 to 100 nM
8,"Cc1cccc(CN(C(=O)CCl)c2cc(C)cc(C)c2)c1 [Compound A8, 2-chloro-N-(3,5-dimethylphenyl)-N-(m-tolylmethyl)acetamide]",10 to 100 nM
9,"Cc1cc(C)cc(N(Cc2cccc(Cl)c2)C(=O)CCl)c1 [Compound A9, 2-chloro-N-[(3-chlorophenyl)methyl]-N-(3,5-dimethylphenyl)acetamide]",10 to 100 nM
10,"Cc1ccc(CN(C(=O)CCl)c2cc(C)cc(C)c2)cc1 [Compound A10, 2-chloro-N-(3,5-dimethylphenyl)-N-(p-tolylmethyl)acetamide]",100 to 1000 nM
11,"Cc1cc(C)cc(N(Cc2ccccc2C)C(=O)CCl)c1 [Compound A11, 2-chloro-N-(3,5-dimethylphenyl)-N-(o-tolylmethyl)acetamide]",100 to 1000 nM
12,"O=C(CCl)N(Cc1ccc(F)cc1)C1CCCCC1 [Compound A12, 2-chloro-N-cyclohexyl-N-[(4-fluorophenyl)methyl]acetamide]",100 to 1000 nM
13,"COc1cccc(N(Cc2ccc(F)cc2)C(=O)CCl)c1 [Compound A13, 2-chloro-N-[(4-fluorophenyl)methyl]-N-(3-methoxyphenyl)acetamide]",100 to 1000 nM
14,"COc1cc(Cl)cc(N(Cc2ccc(F)cc2)C(=O)CCl)c1 [Compound A14, 2-chloro-N-(3-chloro-5-methoxy-phenyl)-N-[(4-fluorophenyl)methyl]acetamide]",100 to 1000 nM
15,"O=C(CCl)N(Cc1ccc(F)cc1)c1cc(F)cc(F)c1 [Compound A15, 2-chloro-N-(3,5-difluorophenyl)-N-[(4-fluorophenyl)methyl]acetamide]",1000 to 10000 nM
16,"O=C(CCl)N(Cc1ccc(F)cc1)c1cc(Cl)cc(Cl)c1 [Compound A16, 2-chloro-N-(3,5-dichlorophenyl)-N-[(4-fluorophenyl)methyl]acetamide]",100 to 1000 nM
17,"COc1ccc(N(Cc2ccc(F)cc2)C(=O)CCl)cc1Cl [Compound A17, 2-chloro-N-(3-chloro-4-methoxy-phenyl)-N-[(4-fluorophenyl)methyl]acetamide]",100 to 1000 nM
18,"O=C(CCl)N(Cc1ccc(F)cc1)c1cccc(Cl)c1 [Compound A18, 2-chloro-N-(3-chlorophenyl)-N-[(4-fluorophenyl)methyl]acetamide]",100 to 1000 nM
19,"COc1cc(OC)cc(N(Cc2ccc(C#N)cc2)C(=O)CCl)c1 [Compound A19, 2-chloro-N-[(4-cyanophenyl)methyl]-N-(3,5-dimethoxyphenyl)acetamide]",10 to 100 nM
20,"COc1cc(OC)cc(N(Cc2cccc(F)c2F)C(=O)CCl)c1 [Compound A20, 2-chloro-N-[(2,3-difluorophenyl)methyl]-N-(3,5-dimethoxyphenyl)acetamide]",10 to 100 nM
21,"COc1ccc(CN(C(=O)CCl)c2cc(OC)cc(OC)c2)cc1 [Compound A21, 2-chloro-N-(3,5-dimethoxyphenyl)-N-[(4-methoxyphenyl)methyl]acetamide]",10 to 100 nM

row,SMILES,IC50
1,"O=C(CCl)N(Cc1ccc(F)cc1)c1ccc2ncccc2c1 [Compound A22, 2-chloro-N-[(4-fluorophenyl)methyl]-N-(6-quinolyl)acetamide]",100 to 1000 nM
2,"COc1cc(OC)cc(N(Cc2ccc(F)cc2Br)C(=O)CCl)c1 [Compound A23, N-[(2-bromo-4-fluoro-phenyl)methyl]-2-chloro-N-(3,5-dimethoxyphenyl)acetamide]",10 to 100 nM
3,"COc1cc(OC)cc(N(Cc2ccc(O)cc2)C(=O)CCl)c1 [Compound A24, 2-chloro-N-(3,5-dimethoxyphenyl)-N-[(4-hydroxyphenyl)methyl]acetamide]",100 to 1000 nM
4,"COc1cc(C)cc(N(Cc2ccc(F)cc2)C(=O)CCl)c1 [Compound A25, 2-chloro-N-[(4-fluorophenyl)methyl]-N-(3-methoxy-5-methyl-phenyl)acetamide]",100 to 1000 nM
5,"COc1cc(OC)cc(N(Cc2c(Cl)cc(F)cc2Cl)C(=O)CCl)c1 [Compound A26, 2-chloro-N-[(2,6-dichloro-4-fluoro-phenyl)methyl]-N-(3,5-dimethoxyphenyl)acetamide]",10 to 100 nM
6,"COc1cc(OC)cc(N(Cc2ccc(F)cc2C(F)(F)F)C(=O)CCl)c1 [Compound A27, 2-chloro-N-(3,5-dimethoxyphenyl)-N-[[4-fluoro-2-(trifluoro-methyl)phenyl]methyl]acetamide]",10 to 100 nM
7,"COc1cc(OC)cc(N(Cc2cc(C#N)ccc2F)C(=O)CCl)c1 [Compound A28, 2-chloro-N-[(5-cyano-2-fluoro-phenyl)methyl]-N-(3,5-dimethoxyphenyl)acetamide]",10 to 100 nM
8,"COc1cc(N(Cc2ccc(F)cc2)C(=O)CCl)ccc1C [Compound A29, 2-chloro-N-[(4-fluorophenyl)methyl]-N-(3-methoxy-4-methyl-phenyl)acetamide]",10 to 100 nM
9,"COc1cc(OC)cc(N(Cc2c(C)cc(F)cc2C)C(=O)CCl)c1 [Compound A30, 2-chloro-N-(3,5-dimethoxyphenyl)-N-[(4-fluoro-2,6-dimethyl-phenyl)methyl]acetamide]",≤ 10 nM
10,"COc1cc(OC)cc(N(Cc2cccc(C(F)(F)F)c2F)C(=O)CCl)c1 [Compound A31, 2-chloro-N-(3,5-dimethoxyphenyl)-N-[[2-fluoro-3-(trifluoro-methyl)phenyl]methyl]acetamide]",10 to 100 nM
11,"COc1cccc(F)c1N(Cc1ccc(F)cc1)C(=O)CCl [Compound A32, 2-chloro-N-(2-fluoro-6-methoxy-phenyl)-N-[(4-fluorophenyl)methyl]acetamide]",1000 to 10000 nM
12,"COc1cc(OC)cc(N(Cc2ccc(F)c(OC)c2)C(=O)CCl)c1 [Compound A33, 2-chloro-N-(3,5-dimethoxyphenyl)-N-[(4-fluoro-3-methoxy-phenyl)methyl]acetamide]",≤ 10 nM
13,"O=C(CCl)N(Cc1ccc(F)cc1)c1cc(O)cc(Cl)c1 [Compound A34, 2-chloro-N-(3-chloro-5-hydroxy-phenyl)-N-[(4-fluorophenyl)methyl]acetamide]",100 to 1000 nM
14,"COc1cccc(N(Cc2ccc(F)cc2)C(=O)CCl)c1Cl [Compound A35, 2-chloro-N-(2-chloro-3-methoxy-phenyl)-N-[(4-fluorophenyl)methyl]acetamide]",100 to 1000 nM
15,"COc1ccc(N(Cc2ccc(F)cc2)C(=O)CCl)c(C#N)c1 [Compound A36, 2-chloro-N-(2-cyano-4-methoxy-phenyl)-N-[(4-fluorophenyl)methyl]acetamide]",1000 to 10000 nM
16,"COc1ccc(Cl)c(N(Cc2ccc(F)cc2)C(=O)CCl)c1 [Compound A37, 2-chloro-N-(2-chloro-5-methoxy-phenyl)-N-[(4-fluorophenyl)methyl]acetamide]",100 to 1000 nM
17,"COc1cc(OC)cc(N(Cc2ccc(Br)c(F)c2F)C(=O)CCl)c1 [Compound A38, N-[(4-bromo-2,3-difluoro-phenyl)methyl]-2-chloro-N-(3,5-dimethoxyphenyl)acetamide]",≤ 10 nM
18,"O=C(CCl)N(Cc1ccc(F)cc1)c1cnc2[nH]nc(Br)c2c1 [Compound A39, N-(3-bromo-1H-pyrazolo[3,4-b]pyridin-5-yl)-2-chloro-N-[(4-fluorophenyl)methyl]acetamide]",1000 to 10000 nM
19,"COc1c(C)cc(N(Cc2ccc(F)cc2)C(=O)CCl)cc1C [Compound A40, 2-chloro-N-[(4-fluorophenyl)methyl]-N-(4-methoxy-3,5-dimethyl-phenyl)acetamide]",10 to 100 nM
20,"Cc1cc(N(Cc2ccc(F)cc2)C(=O)CCl)cc(C)c1O [Compound A41, 2-chloro-N-[(4-fluorophenyl)methyl]-N-(4-hydroxy-3,5-dimethyl-phenyl)acetamide]",> 10000 nM
21,"Cc1c(Cl)ccc(N(Cc2ccc(F)cc2)C(=O)CCl)c1Cl [Compound A42, 2-chloro-N-(2,4-dichloro-3-methyl-phenyl)-N-[(4-fluorophenyl)methyl]acetamide]",100 to 1000 nM
